From ChEMBL document CHEMBL4507319 (2021)

Tests used:
Details in all cases: Compound concentration 1000.0 nM
[1] = target: Bone morphogenetic protein receptor type-1A (Homo sapiens) (UniProt P36894)
[2] = target: T1, Ephrin type-B receptor 1 (Homo sapiens) (UniProt P54762)
T1 sequence (whole entry): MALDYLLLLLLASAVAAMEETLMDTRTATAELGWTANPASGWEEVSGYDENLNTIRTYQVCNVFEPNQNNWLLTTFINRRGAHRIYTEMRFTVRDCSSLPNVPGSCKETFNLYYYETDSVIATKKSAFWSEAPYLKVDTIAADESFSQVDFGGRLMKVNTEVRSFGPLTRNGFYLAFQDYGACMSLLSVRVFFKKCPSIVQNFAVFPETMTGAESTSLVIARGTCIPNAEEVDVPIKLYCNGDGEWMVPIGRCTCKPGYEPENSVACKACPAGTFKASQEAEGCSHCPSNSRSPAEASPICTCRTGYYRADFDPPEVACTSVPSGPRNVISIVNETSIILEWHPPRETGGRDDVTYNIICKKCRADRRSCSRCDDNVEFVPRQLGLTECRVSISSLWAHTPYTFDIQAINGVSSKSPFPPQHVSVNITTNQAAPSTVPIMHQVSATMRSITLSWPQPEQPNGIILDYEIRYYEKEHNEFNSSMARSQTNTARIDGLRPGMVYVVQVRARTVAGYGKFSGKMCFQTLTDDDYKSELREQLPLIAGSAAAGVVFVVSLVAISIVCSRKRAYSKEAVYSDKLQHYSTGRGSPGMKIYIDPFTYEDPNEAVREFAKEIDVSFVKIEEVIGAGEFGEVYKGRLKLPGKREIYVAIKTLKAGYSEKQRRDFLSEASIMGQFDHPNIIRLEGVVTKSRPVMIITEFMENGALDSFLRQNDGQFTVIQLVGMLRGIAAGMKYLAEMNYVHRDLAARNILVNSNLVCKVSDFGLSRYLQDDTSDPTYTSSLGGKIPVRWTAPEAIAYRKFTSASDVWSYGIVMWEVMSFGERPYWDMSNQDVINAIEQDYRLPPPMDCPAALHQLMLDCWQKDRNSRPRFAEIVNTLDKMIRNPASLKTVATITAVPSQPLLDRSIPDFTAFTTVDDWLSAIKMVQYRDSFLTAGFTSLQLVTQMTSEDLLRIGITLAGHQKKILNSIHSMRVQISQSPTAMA

[3] = target: T2, Rhodopsin kinase GRK7 (Homo sapiens) (UniProt Q8WTQ7)
T2 sequence (whole entry): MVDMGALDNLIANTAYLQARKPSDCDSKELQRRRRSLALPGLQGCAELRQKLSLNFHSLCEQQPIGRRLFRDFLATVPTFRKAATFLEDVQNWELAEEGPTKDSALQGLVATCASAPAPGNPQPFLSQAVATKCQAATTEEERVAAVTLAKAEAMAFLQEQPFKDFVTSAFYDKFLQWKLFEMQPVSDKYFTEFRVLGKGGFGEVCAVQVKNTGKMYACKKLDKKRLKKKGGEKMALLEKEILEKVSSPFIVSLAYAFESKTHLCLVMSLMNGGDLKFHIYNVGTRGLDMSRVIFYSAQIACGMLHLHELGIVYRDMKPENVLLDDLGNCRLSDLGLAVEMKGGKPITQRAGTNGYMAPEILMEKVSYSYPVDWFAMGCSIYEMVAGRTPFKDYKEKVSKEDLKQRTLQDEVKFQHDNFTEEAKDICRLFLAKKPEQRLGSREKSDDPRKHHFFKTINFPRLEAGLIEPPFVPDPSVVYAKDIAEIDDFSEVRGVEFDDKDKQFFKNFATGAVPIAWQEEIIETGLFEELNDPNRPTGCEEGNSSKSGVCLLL

[4] = target: Mitogen-activated protein kinase kinase kinase kinase 2 (Homo sapiens) (UniProt Q12851)
Sequence of Mitogen-activated protein kinase kinase kinase kinase 2 (Homo sapiens) (Q12851 whole entry): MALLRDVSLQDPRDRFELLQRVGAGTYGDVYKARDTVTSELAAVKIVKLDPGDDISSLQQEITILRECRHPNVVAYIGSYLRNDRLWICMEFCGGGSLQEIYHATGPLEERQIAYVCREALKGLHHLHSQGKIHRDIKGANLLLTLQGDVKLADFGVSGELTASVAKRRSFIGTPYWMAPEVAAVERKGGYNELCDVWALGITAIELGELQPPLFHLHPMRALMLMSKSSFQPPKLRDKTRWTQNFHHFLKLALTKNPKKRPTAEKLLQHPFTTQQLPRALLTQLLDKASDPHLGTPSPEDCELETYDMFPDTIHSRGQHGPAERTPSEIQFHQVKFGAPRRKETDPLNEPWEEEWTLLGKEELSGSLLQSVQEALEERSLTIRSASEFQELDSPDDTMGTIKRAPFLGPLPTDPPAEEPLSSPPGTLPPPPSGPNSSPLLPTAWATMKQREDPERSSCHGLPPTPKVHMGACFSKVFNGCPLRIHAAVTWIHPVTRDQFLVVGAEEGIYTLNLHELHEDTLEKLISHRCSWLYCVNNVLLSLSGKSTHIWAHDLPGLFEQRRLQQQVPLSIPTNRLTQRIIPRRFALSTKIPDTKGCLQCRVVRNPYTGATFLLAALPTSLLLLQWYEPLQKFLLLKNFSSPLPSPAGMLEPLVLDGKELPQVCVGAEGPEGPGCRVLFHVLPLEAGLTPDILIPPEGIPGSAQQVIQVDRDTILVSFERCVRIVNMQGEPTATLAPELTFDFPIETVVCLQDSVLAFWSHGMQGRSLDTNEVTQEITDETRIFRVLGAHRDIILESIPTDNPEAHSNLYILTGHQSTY

[5] = target: MAP kinase-interacting serine/threonine-protein kinase 1 (Homo sapiens) (UniProt Q9BUB5)
Sequence of MAP kinase-interacting serine/threonine-protein kinase 1 (Homo sapiens) (Q9BUB5 whole entry, looked up): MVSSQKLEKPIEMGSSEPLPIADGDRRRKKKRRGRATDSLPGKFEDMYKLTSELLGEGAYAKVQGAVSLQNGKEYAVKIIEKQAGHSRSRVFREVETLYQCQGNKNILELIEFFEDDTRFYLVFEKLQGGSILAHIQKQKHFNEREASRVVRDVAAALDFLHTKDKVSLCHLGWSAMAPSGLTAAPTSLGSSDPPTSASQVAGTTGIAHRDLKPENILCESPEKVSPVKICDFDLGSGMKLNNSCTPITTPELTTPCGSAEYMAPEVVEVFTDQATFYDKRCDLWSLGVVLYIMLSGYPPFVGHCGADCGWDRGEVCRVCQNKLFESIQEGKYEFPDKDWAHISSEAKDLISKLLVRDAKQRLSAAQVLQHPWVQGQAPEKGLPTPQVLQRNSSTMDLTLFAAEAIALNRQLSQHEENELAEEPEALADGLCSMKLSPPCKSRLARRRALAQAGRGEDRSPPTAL

[6] = target: Ribosomal protein S6 kinase alpha-4 (Homo sapiens) (UniProt O75676)
Sequence of Ribosomal protein S6 kinase alpha-4 (Homo sapiens) (O75676 whole entry, looked up): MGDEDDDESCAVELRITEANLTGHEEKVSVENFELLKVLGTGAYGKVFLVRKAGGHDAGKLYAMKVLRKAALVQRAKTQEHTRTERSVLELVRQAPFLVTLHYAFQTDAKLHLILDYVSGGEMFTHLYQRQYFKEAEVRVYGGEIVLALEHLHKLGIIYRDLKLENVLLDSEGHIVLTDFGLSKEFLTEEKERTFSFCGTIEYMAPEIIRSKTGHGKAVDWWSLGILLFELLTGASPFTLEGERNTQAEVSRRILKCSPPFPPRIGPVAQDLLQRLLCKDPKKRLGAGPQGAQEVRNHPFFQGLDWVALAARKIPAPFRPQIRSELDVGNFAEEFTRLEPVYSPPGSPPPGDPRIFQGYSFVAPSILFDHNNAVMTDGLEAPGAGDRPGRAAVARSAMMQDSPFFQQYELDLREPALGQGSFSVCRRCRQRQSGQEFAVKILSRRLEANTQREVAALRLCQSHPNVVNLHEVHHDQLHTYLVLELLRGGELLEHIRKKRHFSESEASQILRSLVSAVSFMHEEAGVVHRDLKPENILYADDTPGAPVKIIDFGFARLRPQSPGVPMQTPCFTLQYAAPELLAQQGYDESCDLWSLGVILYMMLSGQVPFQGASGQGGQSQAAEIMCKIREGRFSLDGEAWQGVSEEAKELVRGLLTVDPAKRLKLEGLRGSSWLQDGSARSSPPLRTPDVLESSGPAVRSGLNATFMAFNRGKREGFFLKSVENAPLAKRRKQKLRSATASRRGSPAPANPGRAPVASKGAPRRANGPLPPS

[7] = target: Ribosomal protein S6 kinase alpha-6 (Homo sapiens) (UniProt Q9UK32)
Sequence of Ribosomal protein S6 kinase alpha-6 (Homo sapiens) (Q9UK32 whole entry): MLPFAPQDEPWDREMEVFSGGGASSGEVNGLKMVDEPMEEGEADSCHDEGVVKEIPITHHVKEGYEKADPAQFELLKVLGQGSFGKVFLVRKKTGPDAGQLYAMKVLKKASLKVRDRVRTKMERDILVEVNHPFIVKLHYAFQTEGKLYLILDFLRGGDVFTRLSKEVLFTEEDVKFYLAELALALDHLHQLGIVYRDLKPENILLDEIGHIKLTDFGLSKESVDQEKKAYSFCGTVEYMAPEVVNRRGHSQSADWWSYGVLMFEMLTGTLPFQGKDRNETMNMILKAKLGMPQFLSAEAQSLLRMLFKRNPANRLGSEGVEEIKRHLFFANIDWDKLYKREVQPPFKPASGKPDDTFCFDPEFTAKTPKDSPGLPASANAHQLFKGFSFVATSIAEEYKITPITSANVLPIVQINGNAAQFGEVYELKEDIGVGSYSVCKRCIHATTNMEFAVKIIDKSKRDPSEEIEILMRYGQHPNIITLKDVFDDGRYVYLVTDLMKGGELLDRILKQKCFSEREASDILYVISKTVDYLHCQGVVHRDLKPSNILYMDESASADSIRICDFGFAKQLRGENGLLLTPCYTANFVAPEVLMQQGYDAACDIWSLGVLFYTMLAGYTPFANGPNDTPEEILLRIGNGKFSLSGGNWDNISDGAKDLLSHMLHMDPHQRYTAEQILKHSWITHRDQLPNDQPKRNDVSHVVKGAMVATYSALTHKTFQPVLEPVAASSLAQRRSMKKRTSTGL

[8] = target: T3, Serine/threonine-protein kinase ULK1 (Homo sapiens) (UniProt O75385)
T3 sequence (whole entry): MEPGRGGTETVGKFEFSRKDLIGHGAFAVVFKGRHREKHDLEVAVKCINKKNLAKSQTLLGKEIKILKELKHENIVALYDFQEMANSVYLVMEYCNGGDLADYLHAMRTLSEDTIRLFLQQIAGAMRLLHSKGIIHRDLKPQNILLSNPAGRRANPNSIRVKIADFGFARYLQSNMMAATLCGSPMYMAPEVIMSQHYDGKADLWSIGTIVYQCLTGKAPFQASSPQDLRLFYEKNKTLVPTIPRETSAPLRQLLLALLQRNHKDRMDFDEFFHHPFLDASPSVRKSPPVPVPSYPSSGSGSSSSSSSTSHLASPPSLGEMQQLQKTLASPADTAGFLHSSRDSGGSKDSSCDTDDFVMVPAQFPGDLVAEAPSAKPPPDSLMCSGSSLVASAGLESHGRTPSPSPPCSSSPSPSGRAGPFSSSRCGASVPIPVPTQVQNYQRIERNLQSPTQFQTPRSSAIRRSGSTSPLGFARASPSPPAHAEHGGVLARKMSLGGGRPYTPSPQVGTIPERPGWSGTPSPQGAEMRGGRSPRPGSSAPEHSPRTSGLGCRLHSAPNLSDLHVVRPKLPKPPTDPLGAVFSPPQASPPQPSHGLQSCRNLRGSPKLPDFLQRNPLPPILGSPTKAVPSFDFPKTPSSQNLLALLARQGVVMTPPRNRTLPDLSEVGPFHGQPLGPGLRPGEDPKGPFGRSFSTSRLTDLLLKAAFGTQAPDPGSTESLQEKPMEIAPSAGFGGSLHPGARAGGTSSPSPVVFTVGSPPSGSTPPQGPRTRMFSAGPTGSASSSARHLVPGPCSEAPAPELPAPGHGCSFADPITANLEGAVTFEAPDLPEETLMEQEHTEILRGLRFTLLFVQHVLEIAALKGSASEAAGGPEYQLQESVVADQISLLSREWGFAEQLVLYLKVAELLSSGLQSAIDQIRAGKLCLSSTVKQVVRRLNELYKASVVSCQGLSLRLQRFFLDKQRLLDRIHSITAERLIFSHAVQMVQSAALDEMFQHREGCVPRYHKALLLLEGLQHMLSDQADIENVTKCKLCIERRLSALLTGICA

Sequence of Bone morphogenetic protein receptor type-1A (Homo sapiens) (P36894 whole entry): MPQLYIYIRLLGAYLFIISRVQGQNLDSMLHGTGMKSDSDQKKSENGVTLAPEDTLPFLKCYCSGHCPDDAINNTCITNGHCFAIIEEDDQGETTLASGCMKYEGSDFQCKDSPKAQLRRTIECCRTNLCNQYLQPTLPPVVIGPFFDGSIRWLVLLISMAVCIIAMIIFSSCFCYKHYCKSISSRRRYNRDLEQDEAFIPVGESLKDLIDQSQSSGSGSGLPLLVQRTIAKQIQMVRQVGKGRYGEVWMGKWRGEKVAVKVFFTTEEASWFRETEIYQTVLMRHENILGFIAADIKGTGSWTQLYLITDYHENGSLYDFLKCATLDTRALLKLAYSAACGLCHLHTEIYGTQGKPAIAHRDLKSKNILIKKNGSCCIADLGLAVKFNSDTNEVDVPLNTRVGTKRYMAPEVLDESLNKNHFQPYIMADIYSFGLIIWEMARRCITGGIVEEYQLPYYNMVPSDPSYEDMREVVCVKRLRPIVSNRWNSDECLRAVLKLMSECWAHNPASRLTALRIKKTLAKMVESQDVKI

Structure (SMILES)	residual activity [1] [%]	residual activity [2] [%]	residual activity [3] [%]	residual activity [4] [%]	residual activity [5] [%]	residual activity [6] [%]	residual activity [7] [%]	residual activity [8] [%]
CC1=C(C#N)C(c2ccc3c(c2)c(NC(=O)c2ccccc2C)nn3C)C(C#N)=C(C)N1 [BAY-974]	100	99	70	99	70	89	83	86
CCc1ccccc1C(=O)Nc1n[nH]c2c(C)c(F)c(C3C(C#N)=C(C)N(C)C(C)=C3C#N)cc12 [BAY-3827]	87	100	54	100	100	100	100	29
